Results published in patent publication US20090192077A1, “North-2'deoxy -methanocarbathymidines as antiviral agents for treatment of kaposi's sarcoma-associated herpes virus” (priority 2005, published 2009).

Assays:
[1] = target: HSV-1 TK (Human herpesvirus 1, UniProt P0DTH5); conditions: cited from earlier work
[2] = target: EBV TK (Epstein-Barr virus, UniProt P03177); conditions: cited from earlier work
[3] = tested on: human cellular TK; conditions: cited from earlier work
[4] = tested on: BCBL-1 cells; test: Intracellular phosphorylation in KSHV-infected BCBL-1 cells (HPLC of methanolic extracts)
Description: Exponentially growing BCBL-1 cells or CEM-SS cells (a human T cell line) were washed three times with PBS and cultured in serum free AIM-V w/BSA medium (Invitrogen) at 2×10^5 cells/mL in the absence (unstimulated control) or presence of 20 ng/mL PMA. After 24 hours, unstimulated and PMA-stimulated cells were harvested, washed once with PBS and resuspended in serum free AIM-V […] radiolabeled compound [^3H]-(N)-MCT, [^3H]-CDV or [^3H]-GCV. Control cultures containing the same concentration of the test compounds but without the radiolabeled formulations were simultaneously set up in an identical manner to assess the cell counts and to evaluate their anti-KSHV activity. In selected experiments, 5′-ET was added at 10˜50 μM to investigate the changes in the anti-KSHV activity and intracellular phosphorylation profiles of the test compounds. The cells were harvested after 24 or 72 hours of incubation.
Upon harvest, the cells were centrifuged at 1,500 rpm for 10 min and washed once with cold PBS. The cell pellets were resuspended in 250 μL of 60% methanol and heated at 95° C. for 3 min, followed by a microcentrifugation at 12,000 g for 10 min at 4° C. The clarified supernatant fractions were evaporated under nitrogen, redissolved in 250 μL of water and subjected to HPLC separation of the phosphorylated metabolites as described in detail elsewhere (Noy, R. et al. 2002 Mol Cancer Ther 1:585-93; Zalah, L. et al. 2002 Antiviral Res 55:63-75). Fractions containing radiolabeled nucleotides were quantitated based on the known specific activity of the parent tritiated nucleoside (Noy, R. et al. 2002 Mol Cancer Ther 1:585-93; Zalah, L. et al. 2002 Antiviral Res 55:63-75).

[5] = tested on: CEM-SS cells; test: Intracellular phosphorylation in uninfected CEM-SS cells; conditions: 10 μM N-MCT, with or without PMA-stimulation
Description: Exponentially growing BCBL-1 cells or CEM-SS cells (a human T cell line) were washed three times with PBS and cultured in serum free AIM-V w/BSA medium (Invitrogen) at 2×10^5 cells/mL in the absence (unstimulated control) or presence of 20 ng/mL PMA. After 24 hours, unstimulated and PMA-stimulated cells were harvested, washed once with PBS and resuspended in serum free AIM-V w/BSA medium at 2×10^5 cells/mL without PMA in the absence or presence of 10 μM N-MCT, CDV or GCV and 5 μCi/mL of the corresponding radiolabeled compound [^3H]-(N)-MCT, [^3H]-CDV or [^3H]-GCV. Control cultures containing the same concentration of the test compounds but without the radiolabeled formulations were simultaneously set up in an identical manner to assess the cell counts and to evaluate their anti-KSHV activity. In selected experiments, 5′-ET was added at 10˜50 μM to investigate the changes in the anti-KSHV activity and intracellular phosphorylation profiles of the test compounds. The cells were harvested after 24 or 72 hours of incubation.
Upon harvest, the cells were centrifuged at 1,500 rpm for 10 min and washed once with cold PBS. […] Fractions containing radiolabeled nucleotides were quantitated based on the known specific activity of the parent tritiated nucleoside (Noy, R. et al. 2002 Mol Cancer Ther 1:585-93; Zalah, L. et al. 2002 Antiviral Res 55:63-75).

[6] = target: T1, recombinant KSHV DNA polymerase (rPOL) and polymerase processivity factor (rPPF) (Human herpesvirus 8 type P, UniProt Q2HRD0); conditions: read-out: IC50 (μM) (mean ± SD), KSHV rPOL/rPPF-mediated DNA synthesis; 37° C., 60 min
T1 sequence (Q2HRD0 1-1012): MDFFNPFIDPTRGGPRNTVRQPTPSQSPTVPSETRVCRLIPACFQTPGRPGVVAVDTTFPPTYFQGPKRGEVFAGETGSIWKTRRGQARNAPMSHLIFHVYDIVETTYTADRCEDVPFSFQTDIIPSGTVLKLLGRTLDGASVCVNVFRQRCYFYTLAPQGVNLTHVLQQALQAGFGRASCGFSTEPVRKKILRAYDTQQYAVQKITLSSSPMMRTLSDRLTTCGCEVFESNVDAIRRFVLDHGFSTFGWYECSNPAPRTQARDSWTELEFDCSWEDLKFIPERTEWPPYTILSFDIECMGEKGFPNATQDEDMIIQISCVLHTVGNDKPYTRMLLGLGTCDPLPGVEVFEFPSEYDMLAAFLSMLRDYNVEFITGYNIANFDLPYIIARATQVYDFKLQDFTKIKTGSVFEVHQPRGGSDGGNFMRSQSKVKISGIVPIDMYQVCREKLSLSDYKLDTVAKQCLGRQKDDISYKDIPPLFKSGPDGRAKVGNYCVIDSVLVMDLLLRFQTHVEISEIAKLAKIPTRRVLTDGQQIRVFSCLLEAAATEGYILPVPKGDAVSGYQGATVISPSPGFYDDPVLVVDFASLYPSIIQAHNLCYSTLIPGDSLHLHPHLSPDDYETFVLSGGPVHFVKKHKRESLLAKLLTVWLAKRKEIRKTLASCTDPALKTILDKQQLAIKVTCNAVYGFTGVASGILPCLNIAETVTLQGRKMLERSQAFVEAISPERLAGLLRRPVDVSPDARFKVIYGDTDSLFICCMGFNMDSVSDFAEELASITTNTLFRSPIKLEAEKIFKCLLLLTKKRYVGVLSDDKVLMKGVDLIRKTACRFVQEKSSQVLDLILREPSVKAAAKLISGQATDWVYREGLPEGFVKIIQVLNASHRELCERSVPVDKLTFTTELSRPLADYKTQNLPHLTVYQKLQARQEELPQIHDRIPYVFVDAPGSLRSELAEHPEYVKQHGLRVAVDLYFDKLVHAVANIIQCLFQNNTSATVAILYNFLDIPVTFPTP
T1 sequence (F5HID2 1-396 partner): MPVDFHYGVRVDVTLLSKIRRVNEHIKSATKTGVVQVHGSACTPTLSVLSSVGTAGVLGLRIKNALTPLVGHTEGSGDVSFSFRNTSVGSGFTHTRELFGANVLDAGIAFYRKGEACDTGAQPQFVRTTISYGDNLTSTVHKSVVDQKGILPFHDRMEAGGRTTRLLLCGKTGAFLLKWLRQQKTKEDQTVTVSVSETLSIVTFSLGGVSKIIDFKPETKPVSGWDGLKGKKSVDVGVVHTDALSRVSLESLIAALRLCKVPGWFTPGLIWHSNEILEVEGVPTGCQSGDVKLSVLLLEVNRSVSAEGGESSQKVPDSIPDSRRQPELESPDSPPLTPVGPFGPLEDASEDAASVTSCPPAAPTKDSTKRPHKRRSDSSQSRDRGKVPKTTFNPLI
Description: KSHV rPOL and rPPF were expressed and purified from the recombinant baculovirus-vector infected Sf9 cells (Dorjsuren, D. et al. 2003 Protein Expr Purif 29:42-50). […] The amounts of newly synthesized DNA, which incorporated DIG-dUTP, were determined by the DIG detection kit (Roche Applied Science) according to the manufacturer's instructions.

Chain of HSV-1 TK (P0DTH5 whole entry): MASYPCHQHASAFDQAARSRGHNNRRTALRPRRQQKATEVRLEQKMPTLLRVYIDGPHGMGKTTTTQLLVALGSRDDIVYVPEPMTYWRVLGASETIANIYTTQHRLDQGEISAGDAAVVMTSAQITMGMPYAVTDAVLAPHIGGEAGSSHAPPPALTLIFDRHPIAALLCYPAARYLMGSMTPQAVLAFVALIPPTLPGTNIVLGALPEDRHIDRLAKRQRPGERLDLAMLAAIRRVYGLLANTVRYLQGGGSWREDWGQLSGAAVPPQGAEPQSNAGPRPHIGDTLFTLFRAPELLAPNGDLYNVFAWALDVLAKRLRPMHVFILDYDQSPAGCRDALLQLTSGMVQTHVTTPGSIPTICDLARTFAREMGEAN
Chain of EBV TK (P03177 whole entry): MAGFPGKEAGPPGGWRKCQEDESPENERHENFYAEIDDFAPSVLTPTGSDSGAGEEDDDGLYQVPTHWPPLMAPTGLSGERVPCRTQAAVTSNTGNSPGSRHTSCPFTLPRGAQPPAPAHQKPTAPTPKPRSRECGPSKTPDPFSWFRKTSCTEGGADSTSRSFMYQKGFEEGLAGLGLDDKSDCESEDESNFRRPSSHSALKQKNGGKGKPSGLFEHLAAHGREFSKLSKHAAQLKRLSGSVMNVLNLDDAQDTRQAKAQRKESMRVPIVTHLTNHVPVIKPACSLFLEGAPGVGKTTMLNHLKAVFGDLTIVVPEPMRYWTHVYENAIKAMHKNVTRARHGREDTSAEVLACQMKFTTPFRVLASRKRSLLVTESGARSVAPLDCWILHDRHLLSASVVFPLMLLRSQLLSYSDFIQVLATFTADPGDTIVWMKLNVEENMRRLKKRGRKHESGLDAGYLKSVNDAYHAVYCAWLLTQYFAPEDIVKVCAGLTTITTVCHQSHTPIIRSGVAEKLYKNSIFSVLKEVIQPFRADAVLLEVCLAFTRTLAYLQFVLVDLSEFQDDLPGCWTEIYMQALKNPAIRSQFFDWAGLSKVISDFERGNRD

## C#CC(O)[C@H]1O[C@@H](n2cc(C)c(=O)[nH]c2=O)C[C@@H]1O (stereo partly shown) [5′-ET, 5′-ethynylthymidine]
[1]
  inhibitory activity against HSV-1 TK: strong inhibitory activity
[2]
  inhibitory activity against EBV TK: strong inhibitory activity
[3]
  inhibitory activity against human cellular TK: not against human cellular TK

## Cc1cn([C@H]2C[C@H](O)[C@]3(COP(=O)(O)OP(=O)(O)OP(=O)(O)O)C[C@H]23)c(=O)[nH]c1=O [N-MCT-TP, North-methanocarbathymidine triphosphate]
[4]; 10 μM of each compound, up to 72 hours, especially PMA-stimulated BCBL-1
  intracellular level compared with CDV-DP and GCV-TP: significantly higher
[4]; PMA-induced BCBL-1, 1, 3 or 10 μM N-MCT
  level of phosphorylated metabolite in the presence of 50 μM 5'-ET: substantially decreased
[5]
  accumulation of phosphorylated metabolite in uninfected cells: no appreciable accumulations

## ganciclovir triphosphate [GCV-TP]
[6]
  IC50: 24.6 ± 5.6 µM
